Reference: PubChem BioAssay (NCI)
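Protocol summary: plate cells (96-well), add compound at 5 concentrations, incubate 48 h, interpolate endpoints linearly. At the GI50, growth is halved. TGI: total growth inhibition.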

Key:
Assay in all cases: DTP human tumour cell line panel, 48 h
BT-549 breast = tested on: BT-549 breast
A549 NSCLC = tested on: A549 NSCLC
KM12 colon = tested on: KM12 colon
CCRF-CEM leukemia = tested on: CCRF-CEM leukemia
UO-31 renal = tested on: UO-31 renal
HCC-2998 colon = tested on: HCC-2998 colon
NCI/ADR-RES ovarian = tested on: NCI/ADR-RES ovarian
MDA-MB-231 breast = tested on: MDA-MB-231 breast
CAKI-1 renal = tested on: CAKI-1 renal
MCF7 breast = tested on: MCF7 breast

Row | Structure (SMILES) | GI50 (BT-549 breast) [µM] | TGI (BT-549 breast) [µM] | GI50 (A549 NSCLC) [µM] | TGI (A549 NSCLC) [µM] | GI50 (KM12 colon) [µM] | TGI (KM12 colon) [µM] | GI50 (CCRF-CEM leukemia) [µM] | TGI (CCRF-CEM leukemia) [µM] | GI50 (UO-31 renal) [µM] | TGI (UO-31 renal) [µM] | GI50 (HCC-2998 colon) [µM] | TGI (HCC-2998 colon) [µM] | GI50 (NCI/ADR-RES ovarian) [µM] | TGI (NCI/ADR-RES ovarian) [µM] | GI50 (MDA-MB-231 breast) [µM] | TGI (MDA-MB-231 breast) [µM] | GI50 (CAKI-1 renal) [µM] | TGI (CAKI-1 renal) [µM] | GI50 (MCF7 breast) [µM] | TGI (MCF7 breast) [µM]
1 | Cc1cc(I)cc(CNCCCN2CCSCC2)c1O | 5.6 | 20.2 | 18.7 | 39.2 | 16.9 | 35.9 | 10.4 | 39.9 | 14.3 | 41.8 | 12.7 | 26.9 | 18.1 | 36.6 | 18.2 | 41.8 | 15.1 | 32.7 | 15.1 | 31.6
2 | O=C1/C(=C/c2ccc(Cl)cc2Cl)N=C(c2ccccc2)N1Cc1ccco1 | 27.4 | 87.9 | 27.1 | 71 | 33.7 | > 100 | 3.58 | 7.6 | 23.9 | > 100 | 26.7 | 76.1 | 25.5 | 57.9 | 17.6 | 49.3 | 30.2 | 50.6 | 13.9 | 33.3
3 | O=C1CNCCCN2CCN(CCCNCC(=O)Nc3ccc(cc3)S(=O)(=O)c3ccc(cc3)NC(=O)CNCCCN3CCN(CCCNCC(=O)Nc4ccc(cc4)S(=O)(=O)c4ccc(cc4)N1)CC3)CC2 |  | 58.4 |  | > 100 |  | > 100 |  | > 100 |  | > 100 |  | 42.7 |  | > 100 |  | 52.1 |  | 99.2 |  | > 100
4 | CN1CCN(Cc2ccc(NC(=O)c3cncc(C#Cc4cnc(N)c5ccc(C#N)cc45)c3)cc2C(F)(F)F)CC1 | 0.729 | 10.8 | 0.0353 | 0.919 | 0.005 | 0.603 | 0.0803 | 2.05 | 0.0809 | 0.565 | 0.901 | 11.1 | 0.915 | 2.03 | 0.037 | 0.228 | 0.0175 | 0.206 | 0.688 | 1.86
5 | CCCCC/C(C=C(C#N)C#N)=C/c1ccccc1 | 2.52 | 8.75 | 8.95 | > 43.6 | 3.37 | 13.2 | 2.51 | 6.96 | 7.08 | 22.1 | 4.69 | 9.77 | 2.48 | 6.46 | 3.85 | 16.2 | 1.3 | 21.3 | 3.46 | 17.4
6 | Cc1ccc2c(c1)C(=O)/C(=C/c1ncc([N+](=O)[O-])n1C)O2 | 1.95 | 5.48 | 2.74 | 9.29 | 1.67 | 5.21 | 0.324 | 2.95 | 1.17 | 5.04 | 2.29 | 5.4 | 2.24 | 7.04 | 1.56 | 6.92 | 0.665 | 7.54 | 0.534 | 9.88
7 | COC(=O)c1cc2c3ccccc3[nH]c2c2ncccc12 | 17.9 | 78.8 | 75.1 | > 100 | 81.1 | > 100 | 32.4 | > 100 | 69.4 | > 100 | 73.8 | > 100 | 56.2 | > 100 | 63.9 | > 100 | 8.12 | > 100 | 14.4 | > 100
8 | CCCCC(=O)OCC1OC(n2cnc3c(=S)nc[nH]c32)C(OC(=O)CCCC)C1OC(=O)CCCC (stereo not given) | 1.11 | > 28.7 | > 25.3 | > 100 | 1.48 | > 100 | 3.25 | > 100 | 2.2 | > 100 | 0.565 | > 36.7 | 3.51 | > 100 | 5.22 | > 100 | 2.26 | > 100 | 1.13 | > 100
9 | COc1cc(/C=C/c2cc(/C=C/c3ccc(O)c(OC)c3)n(-c3ccccc3)n2)ccc1O | 0.631 | 22.8 | 0.405 | 2.16 | 0.315 | 1.29 | 0.127 | > 100 | 0.287 | 1.53 | 0.605 | 2.46 | 0.0874 | 3.85 | 0.557 | 6.94 | 0.33 | 7.26 | 0.265 | 1.7
10 | Cc1nn(CN2CCN(C)CC2)c(=S)n1/N=C/c1cccc2ccccc12 | 21.1 | 47.3 | 20.6 | 46.7 | 19.3 | 41.4 | 23.4 | 55.3 | 22 | 54.4 | 20.9 | 39 | 19.3 | 36.3 | 19.3 | 44.4 | 28.2 | 73.5 | 20.1 | 50.9
11 | Cc1ccc(S(=O)(=O)N(CCOc2ccc(/C(N)=N/Cl)cc2)CCOc2ccc(/C(N)=N\Cl)cc2)cc1 | 14.1 | 36.6 | 4.88 | > 100 | 12.4 | 28.1 | 11.6 | > 100 | > 100 | > 100 | 18.2 | 46.3 | > 100 | > 100 | 44.4 | > 100 | 76.6 | > 100 | 8.08 | > 100
